Here are results for ten compounds from patent US7964641B2, “Treatment of neurodegenerative conditions” (BTG International Limited, priority 2003, dated 2011).

Test [1] relates to MOG-induced CREAE in SJL Mice. Nature of the test: MOG-induced CREAE in SJL mice, forms of GLA (Table 3). The test is classed as in vivo. The settings on record: for Mean Clinical Score / No. with EAE: 100 μl of test lipid.
Test [2] concerns CREAE. The test is described as follows: CREAE studies of structured lipids (SCH in SJL mice, MOG in C57BL mice). The test is classed as in vivo, C57B1/6 and SJL mice. The settings on record: for Efficacy at low dose (FIG. 20): low dose (50 ul, Study 6); for Severity of CREAE (in words): oral, Studies 2 to 7, 25-350 ul; for Shape of dose response: some of the studies.
Test [3] deals with EAE. The settings on record: guinea pig, in vivo; cited from earlier work.
Test [4] relates to EAE. Particulars: depending on dose; cited from earlier work.
Test [5] concerns brain and spinal cord lesions of EAE. The settings on record: GGG treated mice with histological scores 2 and 3. From the text:
Animals were culled on PSD 25. […] Variation in the severity of changes between individual mice is summarised using a semi-quantitative five point grading system.

Values joined by “and” are separate entries in the source; they are usually repeats but may differ in a detail not shown here. Equal entries are not always repeated. “Also recorded” adds a separate entry of the source. Marks after values point to notes of the source that are not given here.

With `CCCCC/C=C\C/C=C\C/C=C\CCCCC(=O)OCC` [EE-GLA], in test [1], the “Mean Clinical Score” value stood at 3.0 ± 0.8 and the “No. with EAE” value was 5/6. In the case of `CCCCC/C=C\C/C=C\C/C=C\CCCCC(=O)OC(COC(=O)CCCCCCCCC)COC(=O)CCCCCCCCC` [C-G-C, Glycerol 1,3-didecanoate 2-octadecatri(6-Z9-Z,12-Z)enoate], in test [2], the “Efficacy at low dose (FIG. 20)” value is “low dose efficacy”, the “Severity of CREAE (in words)” value is given as “capable of reducing severity of CREAE” and the “Shape of dose response” value is listed as “bell shaped response curve”. On to `CCCCC/C=C\C/C=C\CCCCCCCC(=O)O` [linoleic acid], for which the “Incidence and severity of EAE” value in test [3] is “partially suppresses”. Moreover, in test [4], the “Protection in acute rat EAE” value is “dose-dependent action on the clinical severity but did not abolish it”. Take `CCCCC/C=C\C/C=C\C/C=C\C/C=C\CCCC(=O)OC(COC(=O)CCCCCCCCC)COC(=O)CCCCCCCCC` [C-A-C, Glycerol 1,3-didecanoate 2-eicosatetra-(5-Z,8-Z,11-Z,14-Z)enoate]: the “Severity of CREAE (in words)” value in test [2] was “capable of reducing severity of CREAE”. Consider `CCCCC/C=C\C/C=C\C/C=C\CCCCC(=O)OCC(COC(=O)CCCC/C=C\C/C=C\C/C=C\CCCCC)OC(=O)CCCCCCCCC` [G-C-G, Glycerol 1,3-dioctadeca-(6Z,9Z,12Z)-trienoate 2-decanoate, reference compound], for which, in test [2], the “Severity of CREAE (in words)” value was “failed to treat the condition; also recorded: lack of efficacy”. Turning to `CCCCC/C=C\C/C=C\C/C=C\CCCCC(=O)OCC(COC(=O)CCCC/C=C\C/C=C\C/C=C\CCCCC)OC(=O)CCCC/C=C\C/C=C\C/C=C\CCCCC` [G-G-G, glycerol tri-6,9,12-linolenate], the “EAE severity score of the mice with histological changes” value in test [5] is 1 and 1.5. Also, in test [2], the “Severity of CREAE (in words)” value is “capable of reducing severity of CREAE” and the “Shape of dose response” value was “bell shaped response curve”.

Regarding `CCCCC/C=C/C/C=C/C/C=C/CCCCC(=O)OCC(COC(=O)CCCC/C=C/C/C=C/C/C=C/CCCCC)OC(=O)CCCC/C=C/C/C=C/C/C=C/CCCCC` [TG-GLA], in test [1], the “Mean Clinical Score” value is reported as 1.0 ± 1.3^c and the “No. with EAE” value is recorded as 3/6. For the same compound, the “Protective effect in CREAE (in words)” value in test [1] (compared with borage oil) is on record as “protective effects similar to that of the borage oil”. Consider `CCCCC/C=C\C/C=C\C/C=C\C/C=C\CCCC(=O)OCC(COC(=O)CCC/C=C\C/C=C\C/C=C\C/C=C\CCCCC)OC(=O)CCC/C=C\C/C=C\C/C=C\C/C=C\CCCCC` [A-A-A, Glycerol trieicosotetra5-Z,8-Z,11-Z,14Z-eneoate], for which the “Severity of CREAE (in words)” value in test [2] is “capable of reducing severity of CREAE”. As for `CCCCC/C=C\C/C=C\C/C=C\CCCCC(=O)O` [γ-linolenic acid], the “Protection in acute rat EAE” value in test [4] is on record as “fully protective”. Turning to `CCCCC/C=C\C/C=C\C/C=C\CCCCCCC(=O)OC(COC(=O)CCCCCCCCC)COC(=O)CCCCCCCCC` [C-DHGLA-C, Glycerol 1,3-didecanoate2-eicosa-(8Z,11Z,14Z)-trienoate], in test [2], the “Efficacy at low dose (FIG. 20)” value was “low dose efficacy” and the “Severity of CREAE (in words)” value was “capable of reducing severity of CREAE”.
